Assay results: patent EP4603105A1, “PHARMACEUTICAL COMPOSITION CONTAINING CYCLIC COMPOUND HAVING SELECTIVE KRAS INHIBITORY EFFECT AGAINST HRAS AND NRAS” (CHUGAI SEIYAKU KABUSHIKI KAISHA, priority 2022, dated 2024)

How the values were obtained:
[1] = biological target: GDP-bound NRAS wild-type protein (Homo sapiens, UniProt P01111); assay: Binding to NRAS by surface plasmon resonance (SPR), KD and KD ratio to KRAS; conditions: ratio of KD for GDP-bound NRAS wild-type protein to KD for KRAS
In short: (§1)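 Compound binding is evaluated by SPR single-cycle kinetics, with concentrations added intermittently from low to high for 75 s each. Target surfaces carry GDP-loaded biotinylated Avi-RAS at about 100–300 RU, regenerated after each cycle; temperature 30°C. A 1:1 binding model gives KD.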

[2] = biological target: HRAS wild-type protein (Homo sapiens, UniProt P01112); assay: Binding to HRAS by surface plasmon resonance (SPR), KD and KD ratio to KRAS; conditions: ratio of KD for HRAS wild-type protein to KD for KRAS
In short: as §1

[3] = tested on: human lung cancer strain NCI-H441; assay: NCI-H441 cell proliferation inhibitory activity (CellTiter-Glo, 4 days); assay type: cell-based; conditions: NCI-H441 cells, 4 days, read-out: NCl-H441 IC50
In short: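 Proliferation was scored by […] measured after the reagent was added to cultures kept at 37°C in 5% carbon dioxide.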

[4] = biological target: GDP-bound KRAS wild-type protein (Homo sapiens, UniProt P01116); assay: Binding to KRAS by surface plasmon resonance (SPR), dissociation constant KD; conditions: 1:1 binding model
In short: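 Recombinant RAS proteins bearing a biotinylated Avi tag and loaded with GDP served as the captured ligand, recaptured fresh every cycle. Binding responses were referenced to an uncoated surface and a buffer-only blank cycle. Dissociation constants were obtained by 1:1 model fitting at 30°C.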

GDP-bound KRAS wild-type protein, sequence (P01116 1-188 isoform P01116-2): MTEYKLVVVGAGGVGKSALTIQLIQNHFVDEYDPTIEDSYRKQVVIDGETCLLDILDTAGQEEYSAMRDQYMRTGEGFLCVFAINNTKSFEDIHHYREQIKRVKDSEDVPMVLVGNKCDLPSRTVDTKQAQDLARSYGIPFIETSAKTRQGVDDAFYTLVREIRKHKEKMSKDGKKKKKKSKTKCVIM
GDP-bound NRAS wild-type protein, sequence (P01111 whole entry): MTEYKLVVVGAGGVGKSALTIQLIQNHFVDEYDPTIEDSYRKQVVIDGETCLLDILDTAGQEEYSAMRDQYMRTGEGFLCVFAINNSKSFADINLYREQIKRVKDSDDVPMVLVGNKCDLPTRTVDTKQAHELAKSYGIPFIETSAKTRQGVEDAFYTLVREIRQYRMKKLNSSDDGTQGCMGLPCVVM
HRAS wild-type protein, sequence (P01112 whole entry): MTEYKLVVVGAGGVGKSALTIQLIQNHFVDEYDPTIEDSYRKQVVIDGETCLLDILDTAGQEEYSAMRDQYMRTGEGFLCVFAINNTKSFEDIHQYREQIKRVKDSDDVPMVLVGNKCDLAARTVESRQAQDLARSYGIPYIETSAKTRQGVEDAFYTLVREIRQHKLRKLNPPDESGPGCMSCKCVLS

Structure (SMILES)	NRAS /KRAS [1]	HRAS /KRAS [2]	IC50 [3]	Kd [4]
CCC[C@H]1C(=O)N[C@@H]([C@@H](C)CC)C(=O)N(C2CC2)CC(=O)N(C)[C@H]2C/C=C\CCN(C2=O)[C@@H](Cc2ccc(C)cc2)C(=O)N(C)CC(=O)N[C@@H](CCc2ccc(Cl)c(Cl)c2)C(=O)N2C[C@H](OCC)C[C@H]2C(=O)NC2(CC(C)(C)C2)C(=O)N(C)[C@@H](C2CCCC2)C(=O)N(C)[C@H](C(=O)N(C)C)CC(=O)N1C [PP2559]	A (a compound having 10 or more and less than 20 is denoted as A)	A (a compound having 10 or more and less than 20 is denoted as A)	103 nM	0.91 nM
CCC[C@H]1C(=O)N[C@@H]([C@@H](C)CC)C(=O)N(C2CC2)CC(=O)N(C)[C@H]2C/C=C\CCN(C2=O)[C@@H](Cc2ccc(C)cc2)C(=O)N(C)CC(=O)N[C@@H](CCc2cc(F)c(C(F)(F)F)c(F)c2)C(=O)N2C[C@H](OCC)C[C@H]2C(=O)NC2(CC(C)(C)C2)C(=O)N(C)[C@@H](C(CC)CC)C(=O)N(C)[C@H](C(=O)N(C)C)CC(=O)N1C [PP2560]	AA (a compound having 20 or more is denoted as AA)	A (a compound having 10 or more and less than 20 is denoted as A)	46.3 nM	1 nM
CCO[C@@H]1C[C@H]2C(=O)NC3(CC(C)(C)C3)C(=O)N(C)[C@@H](C3CCCC3)C(=O)N(C)[C@H](C(=O)N(C)C)CC(=O)N(C)[C@@H](COC)C(=O)N[C@@H]([C@@H](C)CC)C(=O)N(C3CC3)CC(=O)N(C)[C@H]3C/C=C\CCN(C3=O)[C@@H](CC3CCCCC3)C(=O)N(C)CC(=O)N[C@@H](CCc3ccc(Cl)c(Cl)c3)C(=O)N2C1 [PP2563]	A (a compound having 10 or more and less than 20 is denoted as A)	A (a compound having 10 or more and less than 20 is denoted as A)	108 nM	2.3 nM
CCO[C@@H]1C[C@H]2C(=O)NC3(CC(C)(C)C3)C(=O)N(C)[C@@H](C(CC)CC)C(=O)N(C)[C@H](C(=O)N(C)C)CC(=O)N(C)[C@@H](COC)C(=O)N[C@@H]([C@@H](C)CC)C(=O)N(C3CC3)CC(=O)N(C)[C@H]3C/C=C\CCN(C3=O)[C@@H](CC3CCCCC3)C(=O)N(C)CC(=O)N[C@@H](CCc3cc(F)c(C(F)(F)F)c(F)c3)C(=O)N2C1 [PP2564]	A (a compound having 10 or more and less than 20 is denoted as A)	A (a compound having 10 or more and less than 20 is denoted as A)	222 nM	7.6 nM
CCC[C@H]1C(=O)N[C@@H]([C@@H](C)CC)C(=O)N(C2CC2)CC(=O)N(C)[C@H]2C/C=C\CCN(C2=O)[C@@H](CC2CCC(F)(F)CC2)C(=O)N(C)CC(=O)N[C@@H](CCc2cc(F)c(C(F)(F)F)c(F)c2)C(=O)N2C[C@H](OCC)C[C@H]2C(=O)NC2(CC(C)(C)C2)C(=O)N(C)[C@@H](C2CCCC2)C(=O)N(C)[C@H](C(=O)N(C)C)CC(=O)N1C [PP2566]	A (a compound having 10 or more and less than 20 is denoted as A)	B (a compound having 3 or more and less than 10 is denoted as B)	17.6 nM	0.57 nM
CCC[C@H]1C(=O)N[C@@H]([C@@H](C)CC)C(=O)N(C2CC2)CC(=O)N(C)[C@H]2C/C=C\CCN(C2=O)[C@@H](CC2CCC(F)(F)CC2)C(=O)N(C)CC(=O)N[C@@H](CCc2ccc(Cl)c(Cl)c2)C(=O)N2C[C@H](OCC)C[C@H]2C(=O)NC2(CC(C)(C)C2)C(=O)N(C)[C@@H](C2CCCC2)C(=O)N(C)[C@H](C(=O)N(C)C)CC(=O)N1C [PP2567]	A (a compound having 10 or more and less than 20 is denoted as A)	A (a compound having 10 or more and less than 20 is denoted as A)	102 nM	1.9 nM
CCO[C@@H]1C[C@H]2C(=O)NC3(CC(C)(C)C3)C(=O)N(C)[C@@H](C(CC)CC)C(=O)N(C)[C@H](C(=O)N(C)C)CC(=O)N(C)[C@@H](COC)C(=O)N[C@@H]([C@@H](C)CC)C(=O)N(C3CC3)CC(=O)N(C)[C@H]3C/C=C\CCN(C3=O)[C@@H](CC3CCC(F)(F)CC3)C(=O)N(C)CC(=O)N[C@@H](CCc3cc(F)c(C(F)(F)F)c(F)c3)C(=O)N2C1 [PP2568]	A (a compound having 10 or more and less than 20 is denoted as A)	B (a compound having 3 or more and less than 10 is denoted as B)	23.4 nM	1.2 nM
CCO[C@@H]1C[C@H]2C(=O)NC3(CC(C)(C)C3)C(=O)N(C)[C@@H](C(CC)CC)C(=O)N(C)[C@H](C(=O)N(C)C)CC(=O)N(C)[C@@H](COC)C(=O)N[C@@H]([C@@H](C)CC)C(=O)N(C3CC3)CC(=O)N(C)[C@H]3C/C=C\CCN(C3=O)[C@@H](CC3CCC(F)(F)CC3)C(=O)N(C)CC(=O)N[C@@H](CCc3ccc(Cl)c(Cl)c3)C(=O)N2C1 [PP2569]	AA (a compound having 20 or more is denoted as AA)	A (a compound having 10 or more and less than 20 is denoted as A)	185 nM	2.8 nM
CCC[C@H]1C(=O)N[C@@H]([C@@H](C)CC)C(=O)N(C2CC2)CC(=O)N(C)[C@H]2C/C=C\CCN(C2=O)[C@@H](Cc2ccc(C)cc2)C(=O)N(C)CC(=O)N[C@@H](CCc2cc(F)c(C(F)(F)F)c(F)c2)C(=O)N2C[C@H](OC(C)C)C[C@H]2C(=O)NC2(CC(C)(C)C2)C(=O)N(C)[C@@H](C2CCCC2)C(=O)N(C)[C@H](C(=O)N(C)C)CC(=O)N1C [PP2570]	A (a compound having 10 or more and less than 20 is denoted as A)	A (a compound having 10 or more and less than 20 is denoted as A)	8.9 nM	0.39 nM
CCC[C@H]1C(=O)N[C@@H]([C@@H](C)CC)C(=O)N(C2CC2)CC(=O)N(C)[C@H]2C/C=C\CCN(C2=O)[C@@H](Cc2ccc(C)cc2)C(=O)N(C)CC(=O)N[C@@H](CCc2ccc(Cl)c(Cl)c2)C(=O)N2C[C@H](OC(C)C)C[C@H]2C(=O)NC2(CC(C)(C)C2)C(=O)N(C)[C@@H](C2CCCC2)C(=O)N(C)[C@H](C(=O)N(C)C)CC(=O)N1C [PP2571]	A (a compound having 10 or more and less than 20 is denoted as A)	A (a compound having 10 or more and less than 20 is denoted as A)	76.1 nM	1 nM
CCC(CC)[C@H]1C(=O)N(C)[C@H](C(=O)N2CCCCC2)CC(=O)N(C)[C@@H](COC)C(=O)N[C@@H]([C@@H](C)CC)C(=O)N(C)CC(=O)N(C)[C@H]2C/C=C\CCN(C2=O)[C@@H](Cc2ccc(C(F)(F)F)cc2)C(=O)N(C)CC(=O)N[C@@H](CCc2cc(F)c(C(F)(F)F)c(F)c2)C(=O)N2C[C@H](OC(C)C)C[C@H]2C(=O)NC2(CC(C)(C)C2)C(=O)N1C [PP2608]	AA (a compound having 20 or more is denoted as AA)	A (a compound having 10 or more and less than 20 is denoted as A)	53 nM	1.4 nM
CCC(CC)[C@H]1C(=O)N(C)[C@H](C(=O)N2CCCCC2)CC(=O)N(C)[C@@H](COC)C(=O)N[C@@H]([C@@H](C)CC)C(=O)N(C)CC(=O)N(C)[C@H]2C/C=C\CCN(C2=O)[C@@H](Cc2ccc(C(F)(F)F)cc2)C(=O)N(C)CC(=O)N[C@@H](CCc2ccc(Cl)c(Cl)c2)C(=O)N2C[C@H](OC(C)C)C[C@H]2C(=O)NC2(CC(C)(C)C2)C(=O)N1C [PP2612]	AA (a compound having 20 or more is denoted as AA)	A (a compound having 10 or more and less than 20 is denoted as A)	199 nM	2.4 nM
CCC[C@H]1C(=O)N[C@@H]([C@@H](C)CC)C(=O)N(C2CC2)CC(=O)N(C)[C@H]2C/C=C\CCN(C2=O)[C@@H](Cc2ccc(C)cc2)C(=O)N(C)CC(=O)N[C@@H](CCc2cc(F)c(C(F)(F)F)c(F)c2)C(=O)N2C[C@H](OC3CCC3)C[C@H]2C(=O)NC2(CC(C)(C)C2)C(=O)N(C)[C@@H](C2CCCC2)C(=O)N(C)[C@H](C(=O)N(C)C)CC(=O)N1C [PP2614]	A (a compound having 10 or more and less than 20 is denoted as A)	A (a compound having 10 or more and less than 20 is denoted as A)	12.1 nM	0.27 nM
CCC(CC)[C@H]1C(=O)N(C)[C@H](C(=O)N(C)C)CC(=O)N(C)[C@@H](COC)C(=O)N[C@@H]([C@@H](C)CC)C(=O)N(C2CC2)CC(=O)N(C)[C@H]2C/C=C\CCN(C2=O)[C@@H](CC2CCC(F)(F)CC2)C(=O)N(C)CC(=O)N[C@@H](CCc2cc(F)c(C(F)(F)F)c(F)c2)C(=O)N2C[C@H](OC3CCC3)C[C@H]2C(=O)NC2(CC(C)(C)C2)C(=O)N1C [PP2615]	A (a compound having 10 or more and less than 20 is denoted as A)	A (a compound having 10 or more and less than 20 is denoted as A)	88.7 nM	2 nM
